Among the data in BindingDB's records for doi:10.1021/jm00163a043 (Michigan Cancer Foundation, 1990) are Ki values, retold here.

The target in test [1] is thymidine kinase (Oryctolagus cuniculus). Briefly: Inhibitory affect against rabbit thymus thymidine kinase.
The target is the same in test [2]. The description is as above. This is another data set of the same source.

As usually defined, the Ki is a measure of affinity in units of concentration, obtained from inhibition or displacement. In test [1], `Cc1cn([C@H]2CC[C@@H](CO)O2)c(=O)[nH]c1=S` registered a Ki of 1600 µM.

In turn, `Cc1cn([C@H]2C=C[C@@H](CO)O2)c(=O)[nH]c1=S` displayed an inhibition constant (Ki) in test [1] of 1690 µM. This Ki and that of the molecule before are within 1.5-fold of each other.

The molecule `O=c1ccn([C@H]2C=C[C@@H](CO)O2)c(=O)[nH]1` came in with an inhibition constant Ki in test [2] of 445 µM.

Regarding `O=c1[nH]c(=S)ccn1[C@H]1C=C[C@@H](CO)O1`, in test [2], the Ki was 1690 µM. Against the preceding molecule, the Ki is about 3.8-fold higher.

For `O=c1[nH]c(=S)ccn1[C@H]1CC[C@@H](CO)O1`, the inhibitory constant (Ki) in test [2] was 1280 µM.

For `Cc1cn([C@H]2C[C@H](N=[N+]=[N-])[C@@H](CO)O2)c(=O)[nH]c1=S`, the Ki in test [1] worked out at 54 µM.
